Experimental data as given in patent US11352350B2, “IRAK degraders and uses thereof” (Kymera Therapeutics, Inc., priority 2018, dated 2022).
Where two headings read alike, the source gives them in different places.

What was measured:
[1] = test system: BALB/c mice; assay: MSU crystal-induced inflammatory cell infiltration into six-day air pouch (gout model); format: in vivo, mouse; conditions: orally dosed; FIG. 15
Method: Animals: BALB/c mice, male, 5-6 weeks, weighing approximately 19-23 g were used. Animals were housed and maintained according to IACUC protocols.
Air Pouch: Each mouse was anesthetized and injected with 6 mL of sterile air subcutaneously (SC) at the nape of the neck and the injection site was sealed with flexible colloidon to create an air pouch. Three days later, the mice were injected with 3 mL of sterile air SC at the same site and the injection site was sealed with flexible colloidon.
Preparation of MSU Crystals: 10 g uric acid (Sigma, Cat. U2625, lot BCBM5312V) was heated to 60° C. in 2 L purified water, containing 5.8 mL 10 N NaOH. The pH of the heated mixture was adjusted to 8.9, yielding a clear solution which was stored overnight at 4-8° C. to allow MSU crystals to form and precipitate. The MSU crystals were washed three times with 1 L purified water and stored at 37° C. to dry.
Formulation of Degrader: 0.5% CMC/0.25% Tween-80 was prepared by dissolving 0.5 g carboxymethylcellulose (Sigma, Cat. C4888, lot 101K0185) in 100 mL de-ionized water followed by the addition of 0.25 mL Tween-80 (Sigma, Cat. P1754, lot 073K0064). […]
Termination, Cell Collection and Data: Four hours after MSU/saline injection, the mice were anesthetized and humanely exsanguinated. […] The air pouch was gently massaged, the contents immediately removed, and the exudate volume recorded. […]

[2] = test system: OCI-LY19; assay: OCI-LY19 viability, CTG; format: cell-based; conditions: Homo sapiens, OCI-LY19
[3] = test system: Wistar Strain rats; assay: MSU induced gouty arthritis (knee inflammation) in rats; format: in vivo; conditions: prophylactic treatment, MSU-induced knee inflammation rat model
Method: The anti-inflammatory efficacy and pain reduction for prophylactic treatment in an MSU-induced knee inflammation rat model of human gout was evaluated. See Kou, Y-Y et al., Evid-Based Compl. Alt. (doi: http://dx.doi.org/10.1155/2015/527019).
Preparation of MSU crystals: 4 g uric acid is dissolved in 800 ml 0.03N NaOH and heated to 60° C. NaOH is added as required to maintain pH 8.9. The solution is stored overnight at 4-8° C. Crystals are filtered, washed and dried. Crystals are suspended in sterile saline just prior to use.
Efficacy Study: Receive and quarantine 70 Wistar Strain rats (male, 250-300 g). Following quarantine, rats are accepted for the Study if no signs of clinical distress are noted during the 3-day quarantine period. […] The rat weights are recorded. […] Baseline readings are taken on DAY −3. Baseline knee diameters are measured by digital caliper. Baseline responses to mechanical allodynia, as measured by von Frey fibers, are recorded. […]
DAY 1: Rats are weighed and dosed as in Table 14. One hour after dosing, mechanical allodynia and knee diameters are measured and recorded.
DAY 2: Rats are weighed and dosed as in Table 14 One hour after dosing, mechanical allodynia and knee diameters are measured and recorded. […]
Results are tabulated, graphed and statistically analyzed for anti-inflammatory efficacy and pain reduction.

[4] = Oral exposure / bioavailability of I-75; format: in vivo, rat, dog, and monkey; conditions: FIG. 11
[5] = test system: U2932; assay: U2932 viability, CTG; format: cell-based; conditions: Homo sapiens, U2932

Row | SMILES | IL-1β in plasma [1] | IC50 ([2]; MYD88 WT Lines, read-out: OCI-LY19 Viability, CTG IC50) | IC50 ([2]; MYD88 WT, read-out: OCI-LY19 CTG IC50) | knee joint swelling ([3]; FIG. 17 A) | pain sensitivity ([3]; FIG. 17 B) | oral bioavailability ([4]; rat, dog, and monkey) | oral exposure in plasma ([4]; up to 300 mg/kg) | IC50 ([5]; MYD88 WT Lines, read-out: U2932 Viability, CTG IC50) | IC50 ([5]; MYD88 WT, read-out: U2932 CTG IC50)
1 | CN(CCCOCCCc1cccc2c1n(C)c(=O)n2C1CCC(=O)NC1=O)C[C@H]1CC[C@H](n2cc(NC(=O)c3coc(-c4ccnc(NCC5CC5)c4)n3)c(C(F)F)n2)CC1 (mixture of isomers) [I-30, 2-[2-(Cyclopropylmethylamino)-4-pyridyl]-N-[3-(difluoromethyl)-1-[4-[[3-[3-[1-(2,6-dioxo-3-piperidyl)-3-methyl-2-oxo-benzimidazol-4-yl]propoxy]propyl-methyl-amino]methyl]cyclohexyl]pyrazol-4-yl] oxazole-4-carboxamide] | dose-dependent decrease in IL-1β |  |  |  |  |  |  |  | 
2 | CN(C[C@H]1CC[C@H](n2cc(NC(=O)c3coc(-c4ccnc(NCC5CC5)c4)n3)c(C(F)F)n2)CC1)C1CCN(Cc2cccc3c2n(C)c(=O)n3C2CCC(=O)NC2=O)CC1 (stereo partly drawn) [I-75, 2-(2-((cyclopropylmethyl)amino)pyridin-4-yl)-N-(3-(difluoromethyl)-1-((1r,4r)-4-(((1-((1-(2,6-dioxopiperidin-3-yl)-3-methyl-2-oxo-2,3-dihydro-1H-benzo[d]imidazol-4-yl)methyl)piperidin-4-yl)(methyl)amino)methyl)cyclohexyl)-1H-pyrazol-4-yl)oxazole-4-carboxamide] |  | 480 nM | 480 nM | decreasing knee joint swelling | analgesic effect | oral bioavailable | dose proportional oral exposure in plasma | 374 nM | 374 nM
